Here are results for one compound from patent US11612629B2, “Pharmaceutical composition for preventing or treating muscle diseases, containing ginseng berry extract as active ingredient” (Holistic Bio Co., Ltd., priority 2018, dated 2023).

Assay [1] has as its system muscle atrophy induced mice. Description: Muscle fiber size and cross-sectional area of gastrocnemius (H&E, image J) in muscle atrophy induced mice. Particulars: 14 days. It counts as in vivo, C57BL/6 mice. As to the method:
(§1) First, 5-week-old male C57BL/6 mice were adapted to the animal laboratory environment for 7 days and then divided into 5 groups according to the experimental conditions. Particularly, the experimental groups were divided into the non-treated control group (normal group, Cont), the group induced with muscle atrophy (induction group, IM), the positive control group induced with muscle atrophy and treated with 370 mg/kg of HMB (beta-hydroxy beta-methlybutyrate) (HMB treated group, HMB 370), the group induced with muscle atrophy and treated with low dose (100 mg/kg) of the Panax ginseng berry extract of Example 1 (Panax ginseng berry extract treated group, GBE 100), and the group induced with muscle atrophy and treated with high dose (200 mg/kg) of the Panax ginseng berry extract of Example 1 (Panax ginseng berry extract treated group, GBE 200). Muscle atrophy was induced by immobilization in which a fixation device made of 1.5 mL microfuge tube, clip and velcro tape was applied to one hind leg of a mouse according to ‘Disease models & mechanisms, 8(9), 1059-1069, 2015’. HMB and the Panax ginseng berry extract were dissolved in 0.5% carboxymethyl cellulose (CMC) and administered to the mouse orally once a day for 14 days from the day of the leg immobilization. After 14 days, the gastrocnemius and quadriceps of the hind leg were extracted, weighed, and standardized based on the body weight.
Whether the Panax ginseng berry extract alleviates the muscle fiber cross-sectional area reduction caused by muscle atrophy was confirmed by the following method. Particularly, the gastrocnemius tissue extracted in Experimental Example 1-1 was fixed with 4% paraformaldehyde, stained with hematoxylin and eosin (H&E), and the muscle fiber cross-sectional area was quantified using image J software.

Assay [2] has as its system muscle atrophy induced mice. Description: Muscle weight (gastrocnemius, quadriceps) per body weight in immobilization-induced muscle atrophy mice. It counts as in vivo, C57BL/6 mice. The method, then: as §1

On to `CC(C)(O)CC(=O)O` [HMB, beta-hydroxy beta-methlybutyrate], for which the “muscle atrophy protection, muscle fiber cross-sectional area” value in assay [1] (370 mg/kg orally) is on record as “about 13%”. Besides, in assay [1] (370 mg/kg orally, induction group about 60%), the “muscle fiber cross-sectional area decreased compared to the normal group” value was “about 47%”. Moreover, the “reduction in muscle fiber size (FIG. 3)” value in assay [1] (gastrocnemius, HMB 370 mg/kg, extract 100 and 200 mg/kg orally) is listed as “alleviated”. The “weight of the quadriceps reduced compared to the normal group” value in assay [2] (370 mg/kg orally once a day for 14 days, induction group (IM) about 33%) was “about 17%”. For the same compound, in assay [2] (370 mg/kg orally once a day for 14 days, induction group (IM) about 40%), the “weight of the gastrocnemius reduced compared to the normal group” value was “about 24%”. The “protective ability of muscle atrophy (muscle weight)” value in assay [2] (370 mg/kg orally, 14 days, gastrocnemius and quadriceps) is recorded as “about 16%”.
